Patent US9028845B2, “Chimeric immunomodulatory compounds and methods of using the same-IV” (Dynavax Technologies Corporation, priority 2001, dated 2015)

Columns and labels:
[1] = tested on: human PBMCs; test: Human PBMC cytokine response assay (IFN-γ and IFN-α in cell-free medium by ELISA), with or without cPLGA; format: cell-based;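 as to IFN-α (pg/ml) mean: 20 µg/mL compound for 24 hours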;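 as to IFN-γ (pg/ml) mean: 20 µg/mL compound for 24 hours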
[2] = tested on: mouse splenocytes; test: Mouse splenocyte cytokine secretion (IL-6, IL-12, IFN by ELISA); format: cell-based, BALB/c mice; design: IFN: unit not given beside the values; conditions: 24 h
Experimental: Polynucleotides and chimeric compounds were tested for immunostimulatory activity on mouse splenocytes. Immunostimulation was assessed by measurement of cytokine secretion into the culture media. Cytokine levels in the culture supernatant were determined by enzyme-linked immunosorbent assay (ELISA) tests.
Cells were isolated and prepared using standard techniques. Spleens of 8 to 20 week-old BALB/c mice were harvested and the splenocytes isolated using standard teasing and treatment with ACK lysing buffer from BioWhittaker, Inc. Four spleens were pooled in this experiment. Isolated cells were washed in RPMI 1640 media supplemented with 2% heat-inactivated fetal calf serum (FCS), 50 μM 2-mercaptoethanol, 1% penicillin-streptomycin, and 2 mM L-glutamine and resuspended at approximately […] in 10% FCS/RPMI (RPMI 1640 media with 10% heat-inactivated FCS, 50 μM 2-mercaptoethanol, 1% penicillin-streptomycin, and 2 mM L-glutamine).
Cell cultures were set up in triplicate with approximately 7×10^5 cells/well in a 96-well flat microtiter plate in 100 μl 10% FCS/RPMI with the cells allowed to rest for at lest 1 hour after plating. The indicated test compounds were incubated (at the indicated concentrations) for 24 hours at 37° C. Cell supernatants were harvested and frozen at −80° C. Cytokine production by the cells was determined by ELISAs, as shown in 19.

[3] = tested on: CD19+ B cells; test: Human B cell proliferation assay (3H-thymidine incorporation); conditions: B cells, 2 μg/ml, Experiment B
[4] = Donor 5, 20 μg/ml (mixtures: 20 μg/ml total), 24 h
[5] = Donor 6, 20 μg/ml (mixtures: 20 μg/ml total), 24 h
[6] = Table 25, mean of donors 28250-28253
[7] = donor 28066, 20 ug/ml, 24 h, + PLGA = premixed with 100 μg/ml cPLGA
[8] = donor 28067, 20 ug/ml, 24 h, + PLGA = premixed with 100 μg/ml cPLGA
[9] = donor 28068, 20 ug/ml, 24 h, + PLGA = premixed with 100 μg/ml cPLGA
[10] = mean of Donors 1-2, 20 μg/ml, 24 h
[11] = mean of Donors 5-6, 20 μg/ml (mixtures: 20 μg/ml total), 24 h
[12] = mean of Donors 7-8, 20 μg/ml, 24 h
[13] = mean of donors 28065-28068, 20 ug/ml, 24 h, + PLGA = premixed with 100 μg/ml cPLGA

For “5′-TCGTCG-3′-HEG-5′-ACGTTCG-3′-HEG-5′-AGATGAT-3′ [Compound C-10]”, which “IFN-α (pg/ml) Donor 1” value ([1]; Donor 1, 20 μg/ml, 24 h) is on record?
Its value is 1662 pg/mL.

What about the “IFN-γ (pg/ml) Donor 1” value ([1]; Donor 1, 20 μg/ml, 24 h) of the same substance?
The value was 1595 pg/mL.

What about the “IFN-α (pg/ml) Donor 2” value ([1]; Donor 2, 20 μg/ml, 24 h) of the same substance?
Its value is 50 pg/mL.

And the “IFN-γ (pg/ml) Donor 2” value ([1]; Donor 2, 20 μg/ml, 24 h)?
Its value is 952 pg/mL.

And the “IFN-α (pg/ml) Donor 5” value [1, 4]?
Its value is 91 pg/mL.

What about the “IFN-γ (pg/ml) Donor 5” value [1, 4] of the same substance?
Its value is 102 pg/mL.

What about the “IFN-α (pg/ml) Donor 6” value [1, 5] of the same substance?
The value was 1700 pg/mL.

And the “IFN-γ (pg/ml) Donor 6” value [1, 5]?
Its value is 806 pg/mL.

And the “IFN-α (pg/ml) Donor 7” value ([1]; Donor 7, 20 μg/ml, 24 h)?
The value was 46 pg/mL.

And the “IFN-γ (pg/ml) Donor 7” value ([1]; Donor 7, 20 μg/ml, 24 h)?
Its value is 23 pg/mL.

What about the “IFN-α (pg/ml) Donor 8” value ([1]; Donor 8, 20 μg/ml, 24 h) of the same substance?
Its value is 539 pg/mL.

What about the “IFN-γ (pg/ml) Donor 8” value ([1]; Donor 8, 20 μg/ml, 24 h) of the same substance?
Its value is 198 pg/mL.

And the IFN-α ([1]; Table 9, donor 28089)?
Its IFN-α is 17 pg/mL.

What about the IFN-γ ([1]; Table 9, donor 28089) of the same substance?
Its IFN-γ is 35 pg/mL.

And the IFN-α ([1]; Table 9, donor 28090)?
The IFN-α was 61 pg/mL.

What about the IFN-γ ([1]; Table 9, donor 28090) of the same substance?
Its IFN-γ is 44 pg/mL.

And the IFN-α ([1]; Table 9, donor 28098)?
The IFN-α was 187 pg/mL.

What about the IFN-γ ([1]; Table 9, donor 28098) of the same substance?
The IFN-γ was 174 pg/mL.

What about the IFN-α ([1]; Table 9, donor 28099) of the same substance?
The IFN-α was 304 pg/mL.

And the IFN-γ ([1]; Table 9, donor 28099)?
The IFN-γ was 140 pg/mL.

And the IFN-α mean ([1]; Table 9, mean of donors)?
Its IFN-α mean is 142 pg/mL.

And the IFN-γ mean ([1]; Table 9, mean of donors)?
The IFN-γ mean was 98 pg/mL.

What about the IFN-a ([1]; Table 25, donor 28250) of the same substance?
The IFN-a was 16 pg/mL.

What about the IFN-g ([1]; Table 25, donor 28250, polynucleotides/spacers at amounts equivalent to the CIC, spacers alone 9 uM) of the same substance?
Its IFN-g is 337 pg/mL.

And the IFN-a ([1]; Table 25, donor 28251)?
The IFN-a was 23 pg/mL.

What about the IFN-g ([1]; Table 25, donor 28251) of the same substance?
The IFN-g was 163 pg/mL.

What about the IFN-a ([1]; Table 25, donor 28252) of the same substance?
The IFN-a was 25 pg/mL.

What about the IFN-g ([1]; Table 25, donor 28252) of the same substance?
Its IFN-g is 776 pg/mL.

And the IFN-a ([1]; Table 25, donor 28253)?
The IFN-a was 124 pg/mL.

And the IFN-g ([1]; Table 25, donor 28253)?
The IFN-g was 898 pg/mL.

And the IFN-a mean [1, 6]?
Its IFN-a mean is 47 pg/mL.

What about the IFN-g mean [1, 6] of the same substance?
Its IFN-g mean is 544 pg/mL.

And the “IFN-γ (pg/ml) 28065” value ([1]; donor 28065 (high background), 20 ug/ml, 24 h, + PLGA = premixed with 100 μg/ml cPLGA, 1000 = outside assay limits)?
The value was 1000 pg/mL.

And the “IFN-α (pg/ml) 28065” value ([1]; donor 28065, 20 ug/ml, 24 h, + PLGA = premixed with 100 μg/ml cPLGA)?
The value was 116 pg/mL.

And the “IFN-α (pg/ml) 28066” value [1, 7]?
Its value is 6 pg/mL.

What about the “IFN-γ (pg/ml) 28066” value [1, 7] of the same substance?
Its value is 9 pg/mL.

And the “IFN-α (pg/ml) 28067” value [1, 8]?
Its value is 107 pg/mL.

What about the “IFN-γ (pg/ml) 28067” value [1, 8] of the same substance?
Its value is 51 pg/mL.

And the “IFN-α (pg/ml) 28068” value [1, 9]?
The value was 340 pg/mL.

What about the “IFN-γ (pg/ml) 28068” value [1, 9] of the same substance?
Its value is 559 pg/mL.

And the “IFN-α (pg/ml) mean” value [1, 10]?
Its value is 856 pg/mL.

What about the “IFN-γ (pg/ml) mean” value [1, 10] of the same substance?
Its value is 1273 pg/mL.

What about the “IFN-α (pg/ml) mean” value [1, 11] of the same substance?
The value was 896 pg/mL.

What about the “IFN-γ (pg/ml) mean” value [1, 11] of the same substance?
The value was 454 pg/mL.

What about the “IFN-α (pg/ml) mean” value [1, 12] of the same substance?
Its value is 293 pg/mL.

And the “IFN-γ (pg/ml) mean” value [1, 12]?
The value was 111 pg/mL.

What about the “IFN-α (pg/ml) mean” value [1, 13] of the same substance?
The value was 142 pg/mL.

What about the “IFN-γ (pg/ml) mean” value [1, 13] of the same substance?
The value was 405 pg/mL.

What about the “immunomodulatory activity (IFN-γ / IFN-α secretion), in words” value ([1]; used alone (no cPLGA)) of the same substance?
The value was “did have immunomodulatory activity”.

And the IFN ([2]; dose 0.1 μg/ml)?
The IFN was 9.

And the IL-6 ([2]; dose 0.1 μg/ml)?
Its IL-6 is 9.

And the IL-12 ([2]; dose 0.1 μg/ml)?
The IL-12 was 122.

And the IFN ([2]; dose 1.0 μg/ml)?
Its IFN is 104.

What about the IL-6 ([2]; dose 1.0 μg/ml) of the same substance?
The IL-6 was 1761.

And the IL-12 ([2]; dose 1.0 μg/ml)?
The IL-12 was 1738.

What about the IFN ([2]; dose 5.0 μg/ml) of the same substance?
The IFN was 199.

What about the IL-6 ([2]; dose 5.0 μg/ml) of the same substance?
Its IL-6 is 3342.

What about the IL-12 ([2]; dose 5.0 μg/ml) of the same substance?
Its IL-12 is 2329.

And the cpm1 ([3]; donor 121)?
Its cpm1 is 15142 cpm.

What about the cpm2 ([3]; donor 121) of the same substance?
Its cpm2 is 14136 cpm.

And the cpm3 ([3]; donor 121)?
The cpm3 was 16158 cpm.

What about the mean cpm ([3]; donor 121 mean) of the same substance?
Its mean cpm is 15145 cpm.

What about the cpm1 ([3]; donor 194) of the same substance?
Its cpm1 is 7480 cpm.

What about the cpm2 ([3]; donor 194) of the same substance?
Its cpm2 is 5458 cpm.

What about the cpm3 ([3]; donor 194) of the same substance?
Its cpm3 is 5943 cpm.

And the mean cpm ([3]; donor 194 mean)?
Its mean cpm is 6294 cpm.

And the mean of both ([3]; mean of donors 121 and 194)?
Its mean of both is 10720 cpm.
